Test results taken from patent US20200208111A1, “GENOME-EDITED NK CELL AND METHODS OF MAKING AND USING” (REGENTS OF THE UNIVERSITY OF MINNESOTA, priority 2016, published 2020).

What was measured:
CISH = CISH expression in NK cells after electroporation, protein lysates on Wes machine with CISH-specific antibody; type: cell-based, human; settings: with Cas9 mRNA, compared to matched donor samples electroporated with Cas9 mRNA alone; five days after electroporation; n=3 donors
Description: NK cells (3×10^6) from three donors (donors 070, 380, and 437) stimulated with aAPCs were electroporated using the optimized NEON electroporation conditions with 10 μg Cas9 mRNA and 10 μg CISH gRNA. Five days after electroporation, cells were harvested and protein lysates were run with a CISH-specific antibody on a Wes machine (Protein Simple, San Jose, Calif.) and CISH expression (area under peak) normalized to ([…] was analyzed using Compass Software (Protein Simple, Bio-Techne, Minneapolis, Minn.). Results are shown in FIG. 9.

PD1 = assay: CRISPR/Cas9 gene editing at PD1 in primary human NK cells, Surveyor nuclease activity assay; type: cell-based; settings: chemically modified gRNA and Cas9 mRNA; 72 hours post electroporation
Description: For FIGS. 1-7 (as appropriate), activity of the gRNAs was quantified by a Surveyor Digest, gel electrophoresis, and densitometry (Guschin et al., Methods Mol. Biol., 2010, 649:247-256).
Unstimulated or stimulated CD3^−CD56^+ NK cells were nucleofected using the AMAXA nucleofection system (Human Macrophage Kit, Lonza Group, Basel, Switzerland). Cells were counted and resuspended at a density of 3.0×10^6 cells in 100 μL of Resuspension buffer, and the following reagents were added to the cells and buffer prior to nucleofection: 10 μg, 15 μg, or 20 μg mRNA Cas9 (TriLink. BioTechnologies, San Diego, Calif.), and 10 μg, 20 μg, or 30 μg gRNA (TriLink BioTechnologies, San Diego, Calif.). Three days after nucleofection, cells were harvested and gRNA activity was measured as above.

TIGIT = TIGIT expression in knockout NK cells by flow cytometry; type: cell-based, human; settings: with Cas9 mRNA, compared to matched donor samples electroporated with Cas9 mRNA alone; five days after electroporation; n=2 donors
Description: 3×10^6 NK cells from two donors (donors 407 and 613) stimulated with aAPCs were electroporated using the optimized NEON electroporation conditions with 10 μg Cas9 mRNA and 10 μg gRNA. Five days after electroporation, cells were harvested and stained with antibodies for CD56, CD3, TIGIT, and SYTOX Blue viability dye. Cells were gated on single cells (FSC-H vs FSC-A), CD56^+, CD3^−, SYTOX Blue^−, and TIGIT^+. TIGIT expression in knockout cells was compared to matched donor samples electroporated with Cas9 mRNA alone.

Q: Which CISH expression (CISH) does the source give for “CISH gRNA: guide RNA GGGUUCCAUUACGGCCAGCG (SEQ ID NO: 14) (listed as RNA, chemistry not given here)” here?
A: decreased

Q: How did the “Gene modification of NK cells” value (PD1) turn out when “PD1 gRNA: guide RNA CCUGCUCGUGGUGACCGAAG (SEQ ID NO: 11), chemically modified (chemically modified, pattern not given here)” was run?
A: gene modification of NK cells was induced

Q: For “TIGIT gRNA: guide RNA GACCUGGGUCACUUGUGCCG (SEQ ID NO: 13) (listed as RNA, chemistry not given here)”, which TIGIT expression (TIGIT) is on record?
A: decreased
